Holding throughout (type): biochemical
Test [1] addresses HCV genotype 1b NS3/4A protease (Hepatitis C virus genotype 1b, UniProt P26663). Nature of the test: fluorescence-based enzymatic assay, genotype 1b NS3/4A.
For another test, the target named is R155K NS3/4A genotype 1b (Hepatitis C virus genotype 1b, UniProt P26663, R1181K). Nature of the test: enzymatic inhibition assay, drug-resistant mutant R155K of genotype 1b.
Test [2] deals with HCV genotype 3a NS3/4A protease (Hepatitis C virus genotype 3a, UniProt Q81258). Description: enzymatic inhibition assay, genotype 3a NS3/4A.
In another test the target is A156S NS3/4A genotype 1b (Hepatitis C virus genotype 1b, UniProt P26663, A1182S). Nature of the test: enzymatic inhibition assay, drug-resistant mutant A156S of genotype 1b.
For another test, the target named is V36M NS3/4A genotype 1b (Hepatitis C virus genotype 1b, UniProt P26663, V1062M). Nature of the test: enzymatic inhibition assay, drug-resistant mutant V36M of genotype 1b.

Like-named read-outs stand apart in the source and are kept apart here. Bounds are passed on as bounds.

For `Cc1ccc(S(=O)(=O)Nc2ccccc2C(=O)Nc2nc3c(C)cc(C)cc3s2)cc1` [F0325–0086], the IC50 in test [1] is 2 to 5 µM.

`Cc1ccc(S(=O)(=O)Nc2ccccc2C(=O)Nc2nc3ccc4ccccc4c3s2)cc1` [F0325–0092] yielded an IC50 in test [1] of 2 to 5 µM.

In test [1], `Cc1ccc(S(=O)(=O)Nc2ccccc2C(=O)Nc2nc3c(ccc4ccccc43)s2)cc1` [F0325–0093] gave an IC50 of 5 to 10 µM.

In test [1], `Cc1ccc(S(=O)(=O)Nc2ccccc2C(=O)Nc2nc(-c3cc(Cl)ccc3Cl)cs2)cc1` [F0325–0125] had an IC50 of less than 2 µM. The “inhibitory activity (IC50)” value against R155K NS3/4A genotype 1b is “did not retain activity”.

`Cc1ccc(S(=O)(=O)Nc2ccccc2C(=O)Nc2nc3ccc4sc(C)nc4c3s2)cc1` [F0725–0019]: the IC50 in test [1] lay in the range of 2 to 5 µM.

On to `Cc1ccc(S(=O)(=O)Nc2ccccc2C(=O)Nc2nc3c(cc4c5c(cccc53)CC4)s2)cc1` [F0816–0111], for which the IC50 in test [1] fell in the range of 2 to 5 µM. Besides, the “inhibitory activity (IC50)” value against R155K NS3/4A genotype 1b is given as “did not retain activity”.

Turning to `Cc1ccc(S(=O)(=O)Nc2ccccc2C(=O)Nc2nc3c(Cl)ccc(Cl)c3s2)cc1` [F1813–0710], the IC50 in test [2] was 14 µM; in test [1], less than 2 µM. Besides, the “inhibitory activity (IC50)” value on A156S NS3/4A genotype 1b, at V36M NS3/4A genotype 1b and against R155K NS3/4A genotype 1b was “maintains its activities” in each case.

Consider `Cc1ccc(S(=O)(=O)Nc2ccccc2C(=O)Nc2nc3c(C)ccc(Cl)c3s2)cc1` [F1813–0711], for which the IC50 in test [1] lay within 5 to 10 µM. Further, at R155K NS3/4A genotype 1b, the “inhibitory activity (IC50)” value is listed as “did not retain activity”.

Molecule `Cc1ccc(S(=O)(=O)Nc2ccccc2C(=O)Nc2nc3c(Br)cccc3s2)cc1` [F1822–0567] had an IC50 in test [1] of 10 to 100 µM.

In turn, `Cc1c(Cl)cccc1NC(=O)Cc1csc(NS(=O)(=O)c2ccccc2)n1` [F2322–0877] showed an IC50 in test [1] of 5 to 10 µM.

Regarding `Cc1cc(NC(=O)Cc2csc(NS(=O)(=O)c3ccccc3)n2)ccc1Br` [F2322–0885], in test [2] (genotype 3a NS3/4A), the IC50 entry is “did not have any effect”.

As for `CSc1cccc(NC(=O)Cc2csc(NS(=O)(=O)c3ccccc3)n2)c1` [F2322–0904], the IC50 in test [1] was in the range of 5 to 10 µM.

The molecule `CSc1cccc2sc(NC(=O)c3ccccc3NS(=O)(=O)c3ccc(C)cc3)nc12` [F2730–0247] returned an IC50 in test [1] of 10 to 100 µM.

By IC50 is commonly meant the concentration needed to halve the response being measured.

These data come from article PMC6690791 (Bioorganic & medicinal chemistry letters, 2019).
